“And” between values parts separate entries of the source, which are not always exact repeats. Equal entries are not always repeated.
Key:
[1] = biological target: T1, DNA-dependent protein kinase (DNA-PK) (Homo sapiens, UniProt P78527); type: cell-based
T1 construct: NK cells were nucleofected on day 4 with the RNP complex and dsDNA, and incubated with M3814 at various concentrations; endogenous in cells; host or cells: primary peripheral-blood NK cells
Method: Nucleofection: NK-cells were nucleofected on day 4, unless otherwise described for optimization experiments. Post-nucleofection recovery medium (Complete NK MACS® medium (Miltenyi) with 100 IU/mL IL-2 (Peprotech) and 2 ng/mL IL-15 (Peprotech)+/−0.6 uM M3814 (Selleck Chem)) was prepared, with M3814 added at 1.2× the working concentration to account for future dilution. For M3814 related optimization experiments, multiple aliquots of post-recovery medium were prepared with a corresponding concentration of M3814. 150 μL of M3814 recovery medium was plated into individual wells of a 96-well round bottom plate for each replicate and set aside in the incubator. PB-NK cells were harvested and counted using the Countess® II FL Automated Cell Counter (Thermo Fisher Scientific) with 0.4% Trypan Blue viability stain (Thermo Fisher Scientific). 5e5 cells were aliquoted into individual 1.5 mL Eppendorf Tubes® for each nucleofection replicate. While the RNP complexes incubated, the cells were pelleted at 100 g for 10 minutes, and 3 μg (1.5 μL) of dsDNA templates were aliquoted into PCR tubes for each replicate. Following incubation, the RNP complexes were added to the dsDNA templates and were allowed to incubate for 3-5 minutes at room temperature. Cell pellets were resuspended in P3 buffer with 22% supplement (Lonza), and combined with the RNP+dsDNA mixture, for a total volume of […]. Samples were added to the 24 μL reaction cuvettes (Lonza) and were nucleofected using the EH-100 program (Lonza Amaxa™ 4D-Nucleofector®), unless specified otherwise for optimization experiments. Immediately after nucleofection, 100 μL of pre-warmed recovery medium (no M3814) was added to each of the cuvette wells, and samples were rested at 37° C. for 15 minutes. Finally, samples were transferred from the cuvette to the 96-well plate containing pre-warmed recovery medium with M3814. After 24 hours, nucleofected NK cells were combined with irradiated K562-mb15-41BBL (100 Gy) at a 1:2 ratio in complete NK MACS medium with 100 IU/mL IL-2 and 2 ng/mL IL-15.
NK cells were nucleofected on day 4 with the RNP complex and dsDNA, and incubated with M3814 at various concentrations. Nucleofected cells were expanded for one week and assayed by flow cytometry for NKG2A knock-out and transgene expression.

[2] = system: NKG2A; conditions: Huang et al.; cited from earlier work
[3] = system: KLRC1; conditions: primary T cells, Bexte et al.; cited from earlier work
[4] = system: human genome; experiment: Genome-wide off-target analysis by CHANGE-seq; type: biochemical
Method: Off-target analysis via genome wide CHANGE-seq: The Gentra® Puregene® kit (Qiagen, Germantown, MD) was used to extract genomic DNA from unedited primary NK cells per the manufacturer's instructions. Genomic analysis was performed by CHANGE-Seq as described previously in the art. In short, genomic DNA underwent tagmentation with a custom Tn5-transposome, and was gap repaired with HiFi HotStart Uracil+ Ready Mix (Kapa Biosystems, Wilmington, MA). USER enzyme (NEB, Ipswich, MA) and T4 polynucleotide was then used to treat the gap-repaired DNA. DNA circularization was performed using T4 DNA ligase (NEB, Ipswich, MA), followed by treatment with a mixture of exonucleases to remove residual linear DNA. In vitro cleavage reactions were performed on the circularized DNA using SpCas9 protein (NEB, Ipswich, MA) and KLRC1 sgRNA. Cleaved products were incubated with proteinase K (NEB, Ipswich, MA), A-tailed, ligated with a hairpin adapter (NEB, Ipswich, MA), and treated with USER enzyme (NEB, Ipswich, MA). Products were amplified by PCR with the Kapa HiFi polymerase (Kapa Biosystems, Wilmington, MA), and libraries were quantified by qPCR (Kapa Biosystems, Wilmington, MA). Libraries were sequenced with 150 bp paired-end reads on the Illumina NextSeq2000 instrument. CHANGE-seq data analyses were performed as described previously.

[5] = system: KLRC1 gene; experiment: Indel formation by NGS after Cas9 RNP nucleofection of NK-92 cells; type: cell-based, human; conditions: SpCas9 RNP, NGS after two weeks of culture, exon 3
Method: On-target editing analysis via Next Generation Sequencing: Genomic DNA was extracted and indel formation was analyzed via next generation sequencing (Illumina) as previously described in the art. Briefly, edited amplicons were amplified and purified using genomic PCR and SPRI cleanup, respectively. A second PCR was performed with indexing primers to attach unique dual identifiers (Illumina®) to the amplicons. After a second SPRI cleanup, samples were combined and run on the Illumina® MiniSeq™ per the manufacturer's instructions and analyzed using the CRISPR RGEN software.
The editing strategy to improve NK potency against solid tumors involves knocking out the NKG2A receptor that can inhibit cytotoxicity within solid tumors (FIG. 1A), while simultaneously conferring specificity of cytotoxicity to a target antigen on the cancer. To knock out the NKG2A receptor, three single-guide RNAs (sgRNAs) were designed against several common coding exons in the KLRC1 gene (FIG. 1B). Ribonucleoproteins (RNPs) were generated upon the complexation of these sgRNAs with SpCas9 to generate double-stranded DNA breaks at these targets within KLRC1. NK-92 cells, a human cell line derived from non-hodgkin lymphoma, were nucleofected with RNPs containing one of these sgRNAs, and assessed for insertions or deletions (indels) around the targeted site after two weeks of cell culture. […]

| cell expansion after nucleofection [1] | improvement of HDR outcomes [1] | percent of NKG2A− cells [1] | percentage of transgene expression [1] | Molecule | NKG2A knock-out [2] | indel frequencies [2] [%] | indel frequency [3] | sites having off-target activity near a transcription start site (TSS) ([4]; CHANGE-seq) | sites having off-target nuclease activity within exons ([4]; CHANGE-seq) | CHANGE-seq specificity ratio ([4]; on-target reads divided by sum of total reads) | indel formation [5] [%] |
| --- | --- | --- | --- | --- | --- | --- | --- | --- | --- | --- | --- |
| did not affect cell expansion | two-fold | around 75% | 11.9% and 12.8% | COc1ccc([C@@H](O)c2cc(-c3ncnc4cc(N5CCOCC5)ccc34)c(F)cc2Cl)nn1 [M3814] | – | – | – | – | – | – | – |
| – | – | – | – | GGTCTGAGTAGATTACTCCT(TGG) (guide GGUCUGAGUAGAUUACUCCU; listed as RNA, chemistry not given here) [gRNA1] | less than 25% | > 80 | 58-80% | 8 | 10 | 0.038 | 98 |

— US20250255958A1, “VIRUS-FREE CRISPR CAR NATURAL KILLER CELLS” (Wisconsin Alumni Research Foundation, priority 2024, published 2025)
